In patent US12692249B2, “WDR5 inhibitors and modulators” (Vanderbilt University, priority 2019, dated 2026) one finds Ki and GI50 data, which are given here for 18 compounds.

Each structure is given as a SMILES string. Read-outs that look alike come from different tables or passages of the source. Where only a bound is given, the exact number is not on record here.

As a reminder, the Ki is a dissociation constant, usually derived from enzyme kinetics or from competition with a known ligand.

One test concerns the target WDR5 (Homo sapiens, UniProt P61964). The test can be described thus: TR-FRET competition binding assay, displacement of 10mer-Thr-FAM MLL peptide probe from His-tagged WDR5. To be noted: WDR5-His tag (residues 24-334) 2 nM; 10mer-Thr-FAM 150 nM; 60 min, room temperature; read-out: Ki for Inhibition of WDR5 by TR-FRET assay. On the technique in general: Time-resolved FRET reads energy transfer from a long-lived donor to a nearby acceptor.

Test [1] concerns MV4:11 human cancer cell lines. The test can be described thus: Cellular viability / anti-proliferative assay, CellTiter-Glo, 5 day protocol. The note with it: Homo sapiens, MV4-11, 120 h, read-out: GI50 on cellular proliferation of MV4:11 human cancer cell lines. It counts as cell-based. The method in brief:
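MV-4-11 cells in IMDM with 10% FBS, 200 cells/well, exposed 5 days to 22 two-fold dilutions from 30 μM, final DMSO 0.3%. Viability read by CellTiter-Glo luminescence; GI50 from sigmoidal dose-response fit, mean of at least two replicates.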
On the technique in general: ATP-based viability assays read luminescence as a measure of living cells.

Where [2] appears, read: MV4:11 cells, 5 day incubation, CellTiter-Glo, mean of at least two replicates.

As to `Cc1ccc2cncc(N3CCc4c(cc(Cc5cn(C)cn5)cc4-c4cn(C)nc4C(F)(F)F)C3=O)c2c1` [Example 58, 6′-Methyl-7-((1-methyl-1H-imidazol-4-yl)methyl)-5-(1-methyl-3-(trifluoromethyl)-1H-pyrazol-4-yl)-3,4-dihydro-1H-[2,4′-biisoquinolin]-1-one], at WDR5, the inhibition constant Ki is 0.025 nM. For the same compound, the GI50 in test [1] (setting [2]) amounted to 191 nM.

In the case of `Cc1ccc2cncc(N3CCc4c(cc(Cc5ccncc5)cc4-c4cn(C)nc4C(F)(F)F)C3=O)c2c1` [Example 59, 6′-Methyl-5-(1-methyl-3-(trifluoromethyl)-1H-pyrazol-4-yl)-7-(pyridin-4-ylmethyl)-3,4-dihydro-1H-[2,4′-biisoquinolin]-1-one], on WDR5, the inhibitory constant (Ki) stood at 1.4 nM. Besides, the GI50 in test [1] (setting [2]) is 4380 nM.

Take `Cc1nccn1Cc1cc2c(c(-c3cn(C)nc3C(F)(F)F)c1)CCN(C1CCCc3ccc(Br)cc31)C2=O` (stereo not drawn) [Example 60]: on WDR5, the inhibitory constant (Ki) was 0.023 nM. For the same compound, the GI50 in test [1] (setting [2]) turned out to be 38 nM.

Take `Cc1nccn1Cc1cc2c(c(-c3cn(C)nc3C(F)(F)F)c1)CCN(C1CCOc3ccc(Br)cc31)C2=O` (stereo not drawn) [Example 61, 2-(6-Bromochroman-4-yl)-7-((2-methyl-1H-imidazol-1-yl)methyl)-5-(1-methyl-3-(trifluoromethyl)-1H-pyrazol-4-yl)-3,4-dihydroisoquinolin-1(2H)-one]: the Ki on WDR5 was 0.052 nM. Further, in test [1] (setting [2]), the GI50 was determined as 31 nM.

As to `Cc1ccc2c(c1)C(N1CCc3c(cc(Cn4ccnc4C)cc3-c3cn(C)nc3C(F)(F)F)C1=O)CCO2` (stereo not drawn) [Example 62, 7-((2-Methyl-1H-imidazol-1-yl)methyl)-5-(1-methyl-3-(trifluoromethyl)-1H-pyrazol-4-yl)-2-(6-methylchroman-4-yl)-3,4-dihydroisoquinolin-1(2H)-one], on WDR5, the Ki came out at 0.028 nM. For the same compound, the GI50 in test [1] (setting [2]) turned out to be 25 nM.

Regarding `Cc1nccn1Cc1cc2c(c(-c3cn(C)nc3C(F)(F)F)c1)CCN(C1CCOc3ccc(C4CC4)cc31)C2=O` (stereo not drawn) [Example 63, 2-(6-Cyclopropylchroman-4-yl)-7-((2-methyl-1H-imidazol-1-yl)methyl)-5-(1-methyl-3-(trifluoromethyl)-1H-pyrazol-4-yl)-3,4-dihydroisoquinolin-1(2H)-one], the inhibition constant Ki at WDR5 stood at 0.068 nM. Moreover, the GI50 in test [1] (setting [2]) was 87 nM.

Consider `Cc1nccn1Cc1cc2c(c(-c3cn(C)nc3C(F)(F)F)c1)CCN(C1CCCc3ncccc31)C2=O` (stereo not drawn) [Example 64, 7-((2-Methyl-1H-imidazol-1-yl)methyl)-5-(1-methyl-3-(trifluoromethyl)-1H-pyrazol-4-yl)-2-(5,6,7,8-tetrahydroquinolin-5-yl)-3,4-dihydroisoquinolin-1(2H)-one], for which the Ki at WDR5 came to 0.042 nM. Also, the GI50 in test [1] (setting [2]) was determined as 284 nM.

For `COc1cnc2c(c1)C(N1CCc3c(cc(Cn4ccnc4C)cc3-c3cn(C)nc3C(F)(F)F)C1=O)CCC2` (stereo not drawn) [Example 65, 2-(3-Methoxy-5,6,7,8-tetrahydroquinolin-5-yl)-7-((2-methyl-1H-imidazol-1-yl)methyl)-5-(1-methyl-3-(trifluoromethyl)-1H-pyrazol-4-yl)-3,4-dihydroisoquinolin-1(2H)-one], the inhibitory constant (Ki) on WDR5 was < 0.02 nM. For the same compound, the GI50 in test [1] (setting [2]) is < 20 nM.

On to `COc1ccc2c(c1)C(N1CCc3c(cc(Cn4ccnc4)cc3-c3cn(C)nc3C(F)(F)F)C1=O)CCC2` (stereo not drawn) [Example 66, 7-((1H-Imidazol-1-yl)methyl)-2-(7-methoxy-1,2,3,4-tetrahydronaphthalen-1-yl)-5-(1-methyl-3-(trifluoromethyl)-1H-pyrazol-4-yl)-3,4-dihydroisoquinolin-1(2H)-one], for which the inhibition constant Ki at WDR5 came to 0.062 nM. Also, the GI50 in test [1] (setting [2]) amounted to 84 nM.

For the compound `COc1ccc2c(c1)C(N1CCc3c(cc(Cn4ccnc4)cc3-c3cn(C)nc3C(F)(F)F)C1=O)CCO2` (stereo not drawn) [Example 67, 7-((1H-Imidazol-1-yl)methyl)-2-(6-methoxychroman-4-yl)-5-(1-methyl-3-(trifluoromethyl)-1H-pyrazol-4-yl)-3,4-dihydroisoquinolin-1(2H)-one], the Ki on WDR5 turned out to be 0.062 nM. In addition, the GI50 in test [1] (setting [2]) came out at 35 nM.

Consider `COc1cnc2c(c1)[C@@H](N1CCc3c(cc(Cn4ccnc4C)cc3-c3cn(C)nc3C(F)(F)F)C1=O)CCC2` [Example 68, (S)-2-(3-Methoxy-5,6,7,8-tetrahydroquinolin-5-yl)-7-((2-methyl-1H-imidazol-1-yl)methyl)-5-(1-methyl-3-(trifluoromethyl)-1H-pyrazol-4-yl)-3,4-dihydroisoquinolin-1(2H)-one], for which the Ki on WDR5 is < 0.02 nM. Also, the GI50 in test [1] (setting [2]) is < 20 nM.

With `COc1ccc2c(c1)[C@@H](N1CCc3c(cc(Cn4ccnc4C)cc3-c3cn(C)nc3C(F)(F)F)C1=O)CCO2` [Example 69, (S)-2-(6-Methoxychroman-4-yl)-7-((2-methyl-1H-imidazol-1-yl)methyl)-5-(1-methyl-3-(trifluoromethyl)-1H-pyrazol-4-yl)-3,4-dihydroisoquinolin-1(2H)-one], the Ki at WDR5 was < 0.02 nM. Moreover, the GI50 in test [1] (setting [2]) was < 20 nM.

As to `COc1ccc2c(c1)[C@@H](N1CCc3c(cc(Cn4ccnc4)cc3-c3cn(C)nc3C(F)(F)F)C1=O)CCO2` [Example 70, (S)-7-((1H-Imidazol-1-yl)methyl)-2-(6-methoxychroman-4-yl)-5-(1-methyl-3-(trifluoromethyl)-1H-pyrazol-4-yl)-3,4-dihydroisoquinolin-1(2H)-one], the Ki on WDR5 was < 0.02 nM. Besides, the GI50 in test [1] (setting [2]) is < 20 nM.

For the compound `COc1cnc2c(c1)[C@@H](N1CCc3c(cc(Cn4ccnc4)cc3-c3cn(C)nc3C(F)(F)F)C1=O)CCC2` [Example 71, (S)-7-((1H-Imidazol-1-yl)methyl)-2-(3-methoxy-5,6,7,8-tetrahydroquinolin-5-yl)-5-(1-methyl-3-(trifluoromethyl)-1H-pyrazol-4-yl)-3,4-dihydroisoquinolin-1(2H)-one], the Ki at WDR5 is < 0.02 nM. For the same compound, in test [1] (setting [2]), the GI50 was < 20 nM.

Consider `Cn1cc(-c2cc(Cn3ccnc3)cc3c2CCN([C@H]2CCOc4ncc(Cl)cc42)C3=O)c(C(F)(F)F)n1` [Example 72], for which the Ki at WDR5 is < 0.02 nM. In addition, the GI50 in test [1] was < 20 nM.

Consider `CN1CC[C@H](N2CCc3c(cc(Cn4ccnc4)cc3-c3cn(C)nc3C(F)(F)F)C2=O)c2cc(Cl)cnc21` [Example 73, (S)-7-((1H-Imidazol-1-yl)methyl)-2-(6-chloro-1-methyl-1,2,3,4-tetrahydro-1,8-naphthyridin-4-yl)-5-(1-methyl-3-(trifluoromethyl)-1H-pyrazol-4-yl)-3,4-dihydroisoquinolin-1(2H)-one], for which the Ki at WDR5 is < 0.02 nM. For the same compound, the GI50 in test [1] is < 20 nM.

`CCn1cc(-c2cc(Cn3ccnc3C)cc3c2CCN([C@H]2CCOc4ccc(OC)cc42)C3=O)c(C(F)(F)F)n1` [Example 74, (S)-5-(1-Ethyl-3-(trifluoromethyl)-1H-pyrazol-4-yl)-2-(6-methoxychroman-4-yl)-7-((2-methyl-1H-imidazol-1-yl)methyl)-3,4-dihydroisoquinolin-1(2H)-one]: the inhibitory constant (Ki) on WDR5 was < 0.02 nM. Besides, the GI50 in test [1] stood at 20 nM.

Take `CCn1cc(-c2cc(Cn3ccnc3)cc3c2CCN([C@H]2CCOc4ccc(OC)cc42)C3=O)c(C(F)(F)F)n1` [Example 75, (S)-7-((1H-Imidazol-1-yl)methyl)-5-(1-ethyl-3-(trifluoromethyl)-1H-pyrazol-4-yl)-2-(6-methoxychroman-4-yl)-3,4-dihydroisoquinolin-1(2H)-one]: the inhibition constant (Ki) on WDR5 was < 0.02 nM. In addition, the GI50 in test [1] (setting [2]) was determined as 23 nM.
